One block for each compound: values may come before it.
What was measured:
[1] = tested on: human lung cancer NCI-H1581 xenografts; assay: Growth of subcutaneous xenografts of human lung cancer NCI-H1581 in nude mice; type: in vivo; details: for Relative tumor volume RTV (mean ± SD): NCI-H1581, 12.5 mg/kg orally once a day; for Weight (g, mean ± SD): NCI-H1581 tumor-bearing mice, 12.5 mg/kg orally once a day
Description: (§1) The diameter of the subcutaneously implanted tumor in nude mice was measured by a vernier caliper. […] In the compound HuFGFR267 50 mg/kg group, the compound was formulated with 0.5% methylcellulose (MC) to the required concentration before use. The formulation of compound was prepared once a week, and orally administered once a day for 14 days. The positive control drug AZD4547 was diluted to the required concentration with water for injection containing 1% Tween 80 before use. The formulation of AZD4547 was prepared once a week, and orally administered once a day for 14 days. In the solvent control group, an equal amount of water for injection was administrated.

[2] = tested on: human gastric cancer SNU-16 xenografts; assay: Growth of subcutaneous xenografts of human gastric cancer SNU-16 in nude mice (HuFGFR267 study); type: in vivo; details: for Relative tumor volume RTV (mean ± SD): SNU-16, 12.5 mg/kg orally once a day; for Weight (g, mean ± SD): SNU-16 tumor-bearing mice, 12.5 mg/kg orally once a day
Description: as §1, with “The formulation of compound was prepared once a week, and orally administered once a day for 14 days.” left out, “The formulation of AZD4547 was prepared once a week, and orally administered once a day for 14 days.” left out

[3] = biological target: KDR (Homo sapiens, UniProt P35968); assay: Inhibition of receptor tyrosine kinase activity at molecular level (ELISA, Poly(Glu,Tyr)4:1 substrate phosphorylation); type: biochemical; details: 10 nM compound; average of two independent experiments
Sequence of KDR (P35968 20-1356): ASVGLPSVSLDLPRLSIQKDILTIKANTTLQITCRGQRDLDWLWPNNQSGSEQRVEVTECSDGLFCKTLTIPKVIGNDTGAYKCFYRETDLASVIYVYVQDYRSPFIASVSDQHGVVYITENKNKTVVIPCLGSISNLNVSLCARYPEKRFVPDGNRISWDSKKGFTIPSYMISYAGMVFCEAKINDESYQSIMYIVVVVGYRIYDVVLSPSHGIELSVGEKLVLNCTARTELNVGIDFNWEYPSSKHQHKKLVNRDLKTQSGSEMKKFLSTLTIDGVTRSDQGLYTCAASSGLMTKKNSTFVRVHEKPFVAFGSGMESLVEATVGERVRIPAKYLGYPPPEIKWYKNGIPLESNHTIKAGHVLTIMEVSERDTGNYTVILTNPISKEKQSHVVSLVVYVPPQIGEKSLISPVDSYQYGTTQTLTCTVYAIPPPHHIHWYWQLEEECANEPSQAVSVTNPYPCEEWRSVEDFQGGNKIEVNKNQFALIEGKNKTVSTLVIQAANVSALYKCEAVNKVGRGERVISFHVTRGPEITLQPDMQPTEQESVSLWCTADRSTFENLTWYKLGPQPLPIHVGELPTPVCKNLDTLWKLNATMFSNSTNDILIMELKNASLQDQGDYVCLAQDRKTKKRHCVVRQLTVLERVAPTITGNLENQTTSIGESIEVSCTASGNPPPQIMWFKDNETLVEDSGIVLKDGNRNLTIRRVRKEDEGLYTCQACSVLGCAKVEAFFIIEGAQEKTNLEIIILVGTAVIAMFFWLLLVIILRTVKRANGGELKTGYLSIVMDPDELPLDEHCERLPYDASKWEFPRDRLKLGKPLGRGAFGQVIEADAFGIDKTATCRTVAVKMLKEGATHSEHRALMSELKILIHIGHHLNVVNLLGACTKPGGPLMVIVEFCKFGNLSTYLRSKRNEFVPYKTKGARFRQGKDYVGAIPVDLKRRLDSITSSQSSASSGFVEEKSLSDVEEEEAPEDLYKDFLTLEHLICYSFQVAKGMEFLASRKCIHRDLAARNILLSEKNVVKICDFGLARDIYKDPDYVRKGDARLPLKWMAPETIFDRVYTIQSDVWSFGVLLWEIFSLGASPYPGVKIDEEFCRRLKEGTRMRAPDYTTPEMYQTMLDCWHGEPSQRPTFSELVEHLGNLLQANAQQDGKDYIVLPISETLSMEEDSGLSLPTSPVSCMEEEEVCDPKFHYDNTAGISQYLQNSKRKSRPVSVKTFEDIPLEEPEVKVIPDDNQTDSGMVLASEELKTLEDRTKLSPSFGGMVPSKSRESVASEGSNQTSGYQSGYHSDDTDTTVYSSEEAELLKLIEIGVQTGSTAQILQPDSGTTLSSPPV
Description: (§2) Enzyme reaction substrate Poly(Glu, Tyr)4:1 was diluted with potassium-free PBS (10 mM sodium phosphate buffer, 150 mM NaCl, pH 7.2-7.4) to 20 μg/mL. […] The reaction was conducted under 37° C. for 12-16 hours. After the liquid was removed from the wells, the plate was washed three times with 200 μL/well of T-PBS (PBS containing 0.1% Tween-20), each for 5 minutes. The enzyme plate was dried in 37° C. dryer for 1-2 hours.
(§3) 50 μL ATP solution diluted with buffer (50 mM HEPES pH 7.4, 50 mM MgCl2, 0.5 mM MnCl2, 0.2 mM Na3VO4, 1 mM DTT) to a final concentration of 5 μM was added into each well. The compound was diluted with DMSO to a suitable concentration (1 μL/well) or the well contained the corresponding concentration of DMSO (negative control well) Then various kinase recombinant proteins diluted with 49 μL of reaction buffer was added to initiate the reaction. Each experiment required duplicate enzyme-free control well. The reaction was carried out for 1 hour on a 37° C. Shaker (100 rpm). The plate was washed three times with T-PBS. A dilution of the primary antibody PY99 was added (100 μL/well), and the reaction was conducted in a shaker at 37° C. for 0.5 hr. The plate was washed three times with T-PBS. A dilution of the horseradish peroxidase-labeled goat anti-mouse IgG secondary antibody was added (100 μL/well), and the reaction was conducted in a shaker at 37° C. for 0.5 hour. Plate was washed with T-PBS for three times. 2 mg/mL OPD coloration solution (diluted with 0.1 M citric acid-sodium citrate buffer containing 0.03% H2O2 (pH=5.4)) was added (100 μL/well), reacted for 1-10 minutes at 25° C. in dark. The reaction was quenched with 2M H2SO4 (50 μL/well), and read at 490 nm using a tunable microplate reader SPECTRA MAX 190.
(§4) The inhibition ratio of the sample was determined by the following formula: […]
(§5) The IC50 values were obtained via four-parameter regression analysis using the software supplied with the microplate reader.

[4] = biological target: FGFR1 (Homo sapiens, UniProt P11362); assay: as above; type: biochemical; details: 10 nM compound; average of two independent experiments
Sequence of FGFR1 (P11362 22-822): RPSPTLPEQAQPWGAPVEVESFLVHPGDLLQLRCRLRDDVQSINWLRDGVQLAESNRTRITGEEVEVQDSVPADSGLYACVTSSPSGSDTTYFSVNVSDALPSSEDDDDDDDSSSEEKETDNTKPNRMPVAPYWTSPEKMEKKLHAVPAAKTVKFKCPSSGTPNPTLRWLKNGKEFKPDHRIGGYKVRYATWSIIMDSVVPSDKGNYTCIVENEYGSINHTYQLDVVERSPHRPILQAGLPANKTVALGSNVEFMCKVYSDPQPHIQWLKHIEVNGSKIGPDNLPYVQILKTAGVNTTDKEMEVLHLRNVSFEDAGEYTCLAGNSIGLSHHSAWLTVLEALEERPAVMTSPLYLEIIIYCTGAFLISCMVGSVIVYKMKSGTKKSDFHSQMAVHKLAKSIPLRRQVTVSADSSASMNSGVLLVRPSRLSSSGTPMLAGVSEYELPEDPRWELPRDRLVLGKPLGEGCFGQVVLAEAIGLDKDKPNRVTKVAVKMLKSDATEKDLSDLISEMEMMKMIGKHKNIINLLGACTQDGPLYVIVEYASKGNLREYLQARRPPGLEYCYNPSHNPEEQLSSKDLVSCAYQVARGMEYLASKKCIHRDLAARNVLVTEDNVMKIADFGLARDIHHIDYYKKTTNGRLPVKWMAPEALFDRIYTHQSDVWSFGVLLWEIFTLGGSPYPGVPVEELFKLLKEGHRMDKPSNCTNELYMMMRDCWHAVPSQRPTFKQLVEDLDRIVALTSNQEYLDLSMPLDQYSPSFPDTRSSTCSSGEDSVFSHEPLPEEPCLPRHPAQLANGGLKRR
Description: as §2, §3, §4, §5

[5] = biological target: RET (Homo sapiens, UniProt P07949); assay: as above; type: biochemical; details: 10 nM compound; average of two independent experiments
Sequence of RET (P07949 29-1114): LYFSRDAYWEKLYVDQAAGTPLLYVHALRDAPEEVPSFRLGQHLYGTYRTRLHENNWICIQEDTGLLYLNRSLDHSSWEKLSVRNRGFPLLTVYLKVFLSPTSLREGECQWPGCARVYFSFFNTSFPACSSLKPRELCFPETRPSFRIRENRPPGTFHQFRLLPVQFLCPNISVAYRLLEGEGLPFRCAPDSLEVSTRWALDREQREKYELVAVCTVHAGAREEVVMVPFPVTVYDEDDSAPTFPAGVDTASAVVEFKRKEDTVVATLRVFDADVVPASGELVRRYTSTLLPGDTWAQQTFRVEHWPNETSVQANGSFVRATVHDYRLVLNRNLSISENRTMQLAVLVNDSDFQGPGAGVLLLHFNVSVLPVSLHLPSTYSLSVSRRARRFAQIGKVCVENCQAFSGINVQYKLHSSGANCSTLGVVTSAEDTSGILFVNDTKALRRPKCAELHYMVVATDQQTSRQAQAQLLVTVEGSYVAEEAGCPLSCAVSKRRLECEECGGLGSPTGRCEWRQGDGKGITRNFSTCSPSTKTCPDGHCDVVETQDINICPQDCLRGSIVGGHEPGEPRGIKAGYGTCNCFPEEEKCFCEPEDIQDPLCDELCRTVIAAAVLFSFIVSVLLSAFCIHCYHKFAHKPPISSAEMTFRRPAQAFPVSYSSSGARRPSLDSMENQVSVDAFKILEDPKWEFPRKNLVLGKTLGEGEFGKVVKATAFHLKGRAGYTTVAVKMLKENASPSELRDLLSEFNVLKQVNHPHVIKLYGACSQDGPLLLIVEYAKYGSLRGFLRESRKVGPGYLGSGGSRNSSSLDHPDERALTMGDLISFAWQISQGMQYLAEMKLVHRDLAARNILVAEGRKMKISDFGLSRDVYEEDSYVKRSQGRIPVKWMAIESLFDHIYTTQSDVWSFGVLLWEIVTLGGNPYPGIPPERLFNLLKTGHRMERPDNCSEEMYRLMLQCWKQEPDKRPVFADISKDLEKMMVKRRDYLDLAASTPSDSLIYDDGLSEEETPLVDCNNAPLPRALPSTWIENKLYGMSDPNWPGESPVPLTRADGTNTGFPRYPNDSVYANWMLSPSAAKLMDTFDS
Description: as §2, §3, §4, §5

10 nM inhibition ratio KDR [3]: 42.1 | 10 nM inhibition ratio FGFR1 [4]: 78.3 | 10 nM inhibition ratio RET [5]: 87.0
SMILES: [2H]C([2H])([2H])N1CCN(Cc2ccc(NC(=O)c3ccc(Cl)c(C#Cc4cccnc4N)c3)cc2C(F)(F)F)CC1 [Example 53]

10 nM inhibition ratio KDR [3]: 40.8 | 10 nM inhibition ratio FGFR1 [4]: 55.1 | 10 nM inhibition ratio RET [5]: 89.1
SMILES: CN1CCN(Cc2ccc(NC(=O)c3cccc(C#Cc4nc(F)cnc4N)c3)cc2C(F)(F)F)CC1 [Example 47]

Second part, the compound before the results:

SMILES: COc1cc(CCc2cc(NC(=O)c3ccc(N4C[C@@H](C)N[C@@H](C)C4)cc3)n[nH]2)cc(OC)c1 [AZD4547, reference compound]
relative tumor proliferation rate T/C ([1]; NCI-H1581, 12.5 mg/kg orally once a day for 14 days, 14th day): 24.03% | Relative tumor volume RTV (mean ± SD) ([1]; d0): 1.00 ± 0.00 | Relative tumor volume RTV (mean ± SD) ([1]; d3): 1.27 ± 0.44 | Relative tumor volume RTV (mean ± SD) ([1]; d7): 3.43 ± 1.14 | Relative tumor volume RTV (mean ± SD) ([1]; d10): 5.57 ± 3.62 | Relative tumor volume RTV (mean ± SD) ([1]; d14): 13.81 ± 4.56 | animal deaths during the experiment ([1]; NCI-H1581, each group (HuFGFR267 50 mg/kg, AZD4547 12.5 mg/kg)): no mice died | Weight (g, mean ± SD) ([1]; d0): 18.2 ± 1.6 g | Weight (g, mean ± SD) ([1]; d3): 19.3 ± 1.6 g | Weight (g, mean ± SD) ([1]; d7): 20.1 ± 1.9 g | Weight (g, mean ± SD) ([1]; d10): 20.6 ± 2.2 g | Weight (g, mean ± SD) ([1]; d14): 21.3 ± 2.3 g | relative tumor proliferation rate T/C ([2]; SNU-16, 12.5 mg/kg orally once a day for 21 days, day 21): 18.46% | Relative tumor volume RTV (mean ± SD) ([2]; d0): 1.00 ± 0.00 | Relative tumor volume RTV (mean ± SD) ([2]; d3): 0.92 ± 0.29 | Relative tumor volume RTV (mean ± SD) ([2]; d7): 2.34 ± 1.23 | Relative tumor volume RTV (mean ± SD) ([2]; d10): 2.96 ± 2.19 | Relative tumor volume RTV (mean ± SD) ([2]; d14): 3.36 ± 3.14 | Relative tumor volume RTV (mean ± SD) ([2]; d17): 3.77 ± 2.56 | Relative tumor volume RTV (mean ± SD) ([2]; d21): 4.33 ± 3.29 | animal deaths during the experiment ([2]; SNU-16, each group (HuFGFR267 50 and 25 mg/kg, AZD4547 12.5 mg/kg)): no mice died | Weight (g, mean ± SD) ([2]; d0): 18.8 ± 1.2 g | Weight (g, mean ± SD) ([2]; d3): 19.5 ± 1.3 g | Weight (g, mean ± SD) ([2]; d7): 20.0 ± 1.5 g | Weight (g, mean ± SD) ([2]; d10): 20.7 ± 1.5 g | Weight (g, mean ± SD) ([2]; d14): 21.1 ± 1.6 g | Weight (g, mean ± SD) ([2]; d17): 20.9 ± 1.7 g | Weight (g, mean ± SD) ([2]; d21): 21.0 ± 1.7 g

SMILES: CN1CCN(Cc2ccc(NC(=O)c3ccc(Cl)c(C#Cc4cc(Cl)cnc4N)c3)cc2C(F)(F)F)CC1 [Example 17]
10 nM inhibition ratio KDR [3]: 25.0 | 10 nM inhibition ratio FGFR1 [4]: 68.0 | 10 nM inhibition ratio RET [5]: 73.3

SMILES: CNCc1cnc(N)c(C#Cc2cc(C(=O)Nc3ccc(CN4CCN(C)CC4)c(C(F)(F)F)c3)ccc2Cl)c1 [Example 33]
10 nM inhibition ratio KDR [3]: 35.1 | 10 nM inhibition ratio FGFR1 [4]: 49.8 | 10 nM inhibition ratio RET [5]: 77.8

SMILES: CN1CCN(Cc2ccc(NC(=O)c3cc(C#Cc4cccnc4N)cc(C(F)(F)F)c3)cc2C(F)(F)F)CC1 [Example 10]
10 nM inhibition ratio KDR [3]: 34.5 | 10 nM inhibition ratio FGFR1 [4]: 36 | 10 nM inhibition ratio RET [5]: 63.4

SMILES: CN1CCN(Cc2ccc(NC(=O)c3ccc(Cl)c(C#Cc4cccnc4N)c3)cc2C(F)(F)F)CC1.Cl [Example 52]
10 nM inhibition ratio KDR [3]: 40.2 | 10 nM inhibition ratio FGFR1 [4]: 75.2 | 10 nM inhibition ratio RET [5]: 89.3

Reference: patent publication US10988456B2, “O-aminoheteroaryl alkynyl-containing compound, preparation method therefor, and use thereof” (SHANGHAI INSTITUTE OF MATERIA MEDICA, CHINESE ACADEMY OF …, priority 2017, dated 2021)
